Test results as given in publication PMC8131842, “Therapeutic Potential of Vasoactive Intestinal Peptide and its Derivative Stearyl-Norleucine-VIP in Inflammation-Induced Osteolysis” (Frontiers in Pharmacology, 2021).

How the values were obtained:
[1] = test system: Guinea pigs; experiment: Study 003 skin sensitization: adjuvant and patch test; assay type: in vivo, guinea pig; conditions: daily applications for 3 days, SNV 7 mg/animal (1000X)
Protocol: Toxicology. We performed toxicology studies for SNV that consisted of acute subcutaneous, intravenous and oral toxicity in rats, acute dermal toxicity in rabbits, skin sensitization using adjuvant and patch test in guinea pigs, and single and repeated (for 13 weeks) dose toxicity studies in rats. The latter was a 90-days repeated dose toxicity study, consisting of SNV once a day at three different doses to the penis and vagina of male and female rats, respectively. The compound was tested for the treatment of erectile dysfunction. The active dose (7 µg SNV) was chosen as the lowest dose for the study. The highest dosage group in the repeated dose toxicity study received 3,500 µg ([Gozes et al., 1994]). For study 001 (parts 1 through 3), the 1× dose consisted of 0.5 mg SNV dissolved in 7.1 ml vehicle (3.55 ml 10% Sefsol [glycerin monocaprylate] + 3.55 ml isopropanol) and 100µl/animal were administered; the 1000X dose consisted of 91 mg SNV dissolved in 1.3 ml vehicle (0.65 ml 10% Sefsol +0.65 ml isopropanol) and 100µl/animal were administered. For studies 002 through 004, the indicated doses of SNV (Table 1) were dissolved in 0.25 ml 10% Sefsol +0.25 ml 40% isopropanol (vehicle). The methodology for each of the toxicology studies is detailed in Table 1.

[2] = matrix not given, ref Gozes et al., 1994, 1996; cited from earlier work
Excerpt: VIP derivatives and conjugates were designed to include a lipophilic moiety or a shortened VIP chain ([Gozes and Fridkin, 1992]; [Gozes et al., 1994]; [Gozes et al., 1995]; [Gozes et al., 1996]; [Gozes et al., 1999]). Stearyl-norleucine-VIP (Stearyl-Nle^17VIP, SNV) is a lipophilic compound consisting of a VIP molecule with an N-terminal attachment of stearic acid to increase cell and tissue bioavailability and an exchange of the oxidation-vulnerable methionine at position 17 with the stable norleucine.

[3] = test system: Primary murine macrophages/preosteoclasts; experiment: MTT viability assay; assay type: cell-based, mouse; conditions: 10^-6 M, 20 ng/ml M-CSF, 1, 3 and 5 days of treatment, N=5
Protocol: MTT assay. For proliferation assay, macrophages were plated (4000 cells/well) into 96-well plate with standard medium supplemented with 20 ng of M-CSF. Cells were treated as indicated with either TiP, SNV, VIP (10^−6 M) or vehicle at first day of incubation. Cells viability was determined using dimethylthiazol-diphenyl-tetrazolium-bromide (MTT) after 1, 3 or 5 days. MTT was added to a final concentration of 5 mg/ml and incubated for 4 h at 37°C. After complete solubilization of the die in DMSO, plates were read at 570 nm in a colorimetric plate reader.
FIGURE 4 VIP and SNV alleviate the osteoclastogenic effect of TiP-induced inflammation. (A) Primary BMDM were exposed to TiP and RNA was collected after 24 h. mRNA expression are presented as Mean±SD fold change versus Control. * p<0.05 vs. Control. (B-D) Primary murine preosteoclasts were cultured in 20 ng/ml M-CSF and 50 ng/ml RANKL for 48 h. Conditioned medium from macrophages (Control) and macrophages exposed to Ti particles (Ti, as in A) was then added together with 10^-6M of VIP or SNV (or saline) for 48 h before TRAP staining. Data are Mean±SD for osteoclast % surface area (B) and number per well (C). (D) Representative images all acquired at a 4x original magnification. The scale bar for all images is in the upper left panel. n=8, #p<0.05 vs. Control; *p<0.05 vs. Ti, ANOVA. […]

Row | SMILES | Mortality ([1]; adjuvant and patch test) | Skin reactions ([1]; intradermal Freund's complete adjuvant and patch application, 3 males + 3 females per group) | Half-life [2] | Viability of the cells (MTT, optical density) [3]
1 | O=[N+]([O-])c1ccc(Cl)c([N+](=O)[O-])c1 [1%-chloro-2,4-dinitrobenzene, reference compound] | None | severe erythema, edema and necrosis |  | 
2 | CC[C@H](C)[C@H](NC(=O)[C@H](CO)NC(=O)[C@H](CC(N)=O)NC(=O)[C@H](CC(C)C)NC(=O)[C@H](Cc1ccc(O)cc1)NC(=O)[C@H](CCCCN)NC(=O)[C@H](CCCCN)NC(=O)[C@@H](NC(=O)[C@H](C)NC(=O)[C@H](CCSC)NC(=O)[C@H](CCC(N)=O)NC(=O)[C@H](CCCCN)NC(=O)[C@H](CCCN=C(N)N)NC(=O)[C@H](CC(C)C)NC(=O)[C@H](CCCN=C(N)N)NC(=O)[C@@H](NC(=O)[C@H](Cc1ccc(O)cc1)NC(=O)[C@H](CC(N)=O)NC(=O)[C@H](CC(=O)O)NC(=O)[C@@H](NC(=O)[C@H](Cc1ccccc1)NC(=O)[C@@H](NC(=O)[C@H](C)NC(=O)[C@H](CC(=O)O)NC(=O)[C@H](CO)NC(=O)[C@@H](N)Cc1c[nH]cn1)C(C)C)[C@@H](C)O)[C@@H](C)O)C(C)C)C(=O)N[C@@H](CC(C)C)C(=O)N[C@@H](CC(N)=O)C(N)=O [VIP, Vasoactive intestinal peptide] |  |  | ~30 s | neither VIP nor SNV affected the viability
